The results in this text go back to PubChem BioAssay (NCI).

SMILES strings stand for the structures.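 Grown in 96-well plates, cells were treated for 48 hours with each compound at five concentrations. Insufficient inhibition: endpoint recorded as highest concentration tested. At the TGI there is no net growth.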

The subject of the first assay is DU-145 prostate. As to the kind of experiment: NCI tumour cell line growth inhibition, 48 h.
As to `CCCCSC1=N/C(=C\c2ccco2)C(Cl)=N1`, the TGI was > 100 µM.

For the compound `CC(=O)O[C@H]1CC[C@@]2(C)C(=CC[C@@H]3[C@@H]2CC[C@]2(C)NC(=O)/C(=C\c4ccccc4)C[C@@H]32)C1`, the TGI worked out at 48 µM.

Turning to `O=C(CCc1cc(O)ccc1O)OCCc1ccccc1`, the TGI was 41.2 µM.

Consider `O=C(N[C@@H](c1ccccc1)[C@@H](O)C(=O)OCc1ccc([N+](=O)[O-])cc1)c1ccccc1`, for which the TGI was > 100 µM.

Turning to `COC(=O)c1c(C#N)[nH]c(-c2ccsc2)c1C(=O)OC`, the TGI was > 100 µM.

For the compound `CC(=O)O[C@H]1CCC2[C@@H]3CCC4Nc5oncc5C[C@]4(C)C3CC[C@@]21C` (stereo partly drawn), the TGI is > 10 µM.

As for `Cc1c(O)c(OC2OC(CO)C(O)C(O)C2O)cc2c1CC[C@@H]1C2(C)C(=O)C[C@]2(C)[C@@H]([C@@](C)(O)C(=O)CCC(C)(C)O)[C@H](O)C[C@@]12C` (stereo partly drawn), the TGI was > 100 µM.

Consider `Cc1cn(C2CC(O)C(CO[Si](C)(C)C(C)(C)C)OC2OC(C)C)c(=O)[nH]c1=O` (stereo not drawn), for which the TGI was > 100 µM.

`O=c1oc2ccccc2cc1-c1cn2ccccc2n1`: the TGI was found to be 21 µM.

As for `COC(=O)[C@H](Cc1c[nH]c2ccccc12)NC(=O)c1ccc(CNC(=O)/C(C)=C/c2ccccc2)cc1`, the TGI is > 100 µM.

Another assay has as its system HCT-15 colon. The assay is described as follows: NCI tumour cell line growth inhibition, 48 h.
For the compound `Cc1nn(C(=O)Cc2ccccc2)c2c1C(c1ccc(Cl)cc1)SC(N)=N2` (stereo not drawn), the TGI was > 100 µM.

For the compound `C#CC(C)(C)OC(=O)C(=[N+]=[N-])C(C)=O`, the TGI was > 10 µM.

For `CCOC(=O)/C=C/[C@H](O[Si](CC)(CC)CC)C(C)(C)C`, the TGI is > 100 µM.

In turn, `CC(C)N(C(=O)C1(O)c2ccccc2C=Cc2ccccc21)C(C)C` yielded a TGI of 44.6 µM.

With `COc1ccc2c(c1)nc1n2C(c2c(Cl)cccc2Cl)SC1` (stereo not drawn), the TGI was > 100 µM.

Consider `CCCCCC(=O)CCCCCCCC(O)CC(=O)OCC` (stereo not drawn), for which the TGI is > 100 µM.

Take `CCCCSC1=N/C(=C\c2ccco2)C(Cl)=N1`: the TGI is > 100 µM.

For the compound `CC(=O)O[C@H]1CC[C@@]2(C)C(=CC[C@@H]3[C@@H]2CC[C@]2(C)NC(=O)/C(=C\c4ccccc4)C[C@@H]32)C1`, the TGI came to 40.4 µM.

The compound `O=C(CCc1cc(O)ccc1O)OCCc1ccccc1` came in with a TGI of 27.2 µM.

As for `O=C(N[C@@H](c1ccccc1)[C@@H](O)C(=O)OCc1ccc([N+](=O)[O-])cc1)c1ccccc1`, the TGI was > 100 µM.

Regarding `CC(=O)O[C@H]1CCC2[C@@H]3CCC4Nc5oncc5C[C@]4(C)C3CC[C@@]21C` (stereo partly drawn), the TGI is > 10 µM.

For the compound `Cc1c(O)c(OC2OC(CO)C(O)C(O)C2O)cc2c1CC[C@@H]1C2(C)C(=O)C[C@]2(C)[C@@H]([C@@](C)(O)C(=O)CCC(C)(C)O)[C@H](O)C[C@@]12C` (stereo partly drawn), the TGI was > 100 µM.

For the compound `Cc1cn(C2CC(O)C(CO[Si](C)(C)C(C)(C)C)OC2OC(C)C)c(=O)[nH]c1=O` (stereo not drawn), the TGI is > 100 µM.

`O=c1oc2ccccc2cc1-c1cn2ccccc2n1` came in with a TGI of 38.9 µM.

With `COC(=O)[C@H](Cc1c[nH]c2ccccc12)NC(=O)c1ccc(CNC(=O)/C(C)=C/c2ccccc2)cc1`, the TGI is > 100 µM.

The next assay relates to HL-60(TB) leukemia. As to the kind of experiment: NCI tumour cell line growth inhibition, 48 h.
Consider `Cc1nn(C(=O)Cc2ccccc2)c2c1C(c1ccc(Cl)cc1)SC(N)=N2` (stereo not drawn), for which the TGI was > 100 µM.

For the compound `C#CC(C)(C)OC(=O)C(=[N+]=[N-])C(C)=O`, the TGI was > 10 µM.

With `COc1ccc2c(c1)nc1n2C(c2c(Cl)cccc2Cl)SC1` (stereo not drawn), the TGI was > 22.7 µM.

As to `CCCCCC(=O)CCCCCCCC(O)CC(=O)OCC` (stereo not drawn), the TGI is > 100 µM.

With `CCCCSC1=N/C(=C\c2ccco2)C(Cl)=N1`, the TGI was > 100 µM.

In turn, `O=C(CCc1cc(O)ccc1O)OCCc1ccccc1` had a TGI of 5.92 µM.

`CC(=O)O[C@H]1CCC2[C@@H]3CCC4Nc5oncc5C[C@]4(C)C3CC[C@@]21C` (stereo partly drawn): the TGI came to 4.58 µM.

Another assay deals with K-562 leukemia. As to the kind of experiment: NCI tumour cell line growth inhibition, 48 h.
As for `Cc1nn(C(=O)Cc2ccccc2)c2c1C(c1ccc(Cl)cc1)SC(N)=N2` (stereo not drawn), the TGI was > 100 µM.

On to `C#CC(C)(C)OC(=O)C(=[N+]=[N-])C(C)=O`, for which the TGI was > 10 µM.

In the case of `CCOC(=O)/C=C/[C@H](O[Si](CC)(CC)CC)C(C)(C)C`, the TGI was > 100 µM.

With `COc1ccc2c(c1)nc1n2C(c2c(Cl)cccc2Cl)SC1` (stereo not drawn), the TGI was > 100 µM.

`CCCCCC(=O)CCCCCCCC(O)CC(=O)OCC` (stereo not drawn): the TGI was > 100 µM.

With `CC(=O)O[C@H]1CC[C@@]2(C)C(=CC[C@@H]3[C@@H]2CC[C@]2(C)NC(=O)/C(=C\c4ccccc4)C[C@@H]32)C1`, the TGI was > 100 µM.

With `O=C(CCc1cc(O)ccc1O)OCCc1ccccc1`, the TGI was 30.9 µM.

As to `O=C(N[C@@H](c1ccccc1)[C@@H](O)C(=O)OCc1ccc([N+](=O)[O-])cc1)c1ccccc1`, the TGI was > 100 µM.

Take `COC(=O)c1c(C#N)[nH]c(-c2ccsc2)c1C(=O)OC`: the TGI is > 100 µM.

For the compound `CC(=O)O[C@H]1CCC2[C@@H]3CCC4Nc5oncc5C[C@]4(C)C3CC[C@@]21C` (stereo partly drawn), the TGI is > 10 µM.

Regarding `Cc1c(O)c(OC2OC(CO)C(O)C(O)C2O)cc2c1CC[C@@H]1C2(C)C(=O)C[C@]2(C)[C@@H]([C@@](C)(O)C(=O)CCC(C)(C)O)[C@H](O)C[C@@]12C` (stereo partly drawn), the TGI is > 100 µM.

For `Cc1cn(C2CC(O)C(CO[Si](C)(C)C(C)(C)C)OC2OC(C)C)c(=O)[nH]c1=O` (stereo not drawn), the TGI is > 100 µM.

In the case of `O=c1oc2ccccc2cc1-c1cn2ccccc2n1`, the TGI is > 52.6 µM.

For the compound `COC(=O)[C@H](Cc1c[nH]c2ccccc12)NC(=O)c1ccc(CNC(=O)/C(C)=C/c2ccccc2)cc1`, the TGI was > 100 µM.

A further assay deals with LOX IMVI melanoma. The assay is described as follows: NCI tumour cell line growth inhibition, 48 h.
As for `Cc1nn(C(=O)Cc2ccccc2)c2c1C(c1ccc(Cl)cc1)SC(N)=N2` (stereo not drawn), the TGI was > 100 µM.

`C#CC(C)(C)OC(=O)C(=[N+]=[N-])C(C)=O`: the TGI was > 10 µM.

Compound `CCOC(=O)/C=C/[C@H](O[Si](CC)(CC)CC)C(C)(C)C` registered a TGI of 46.2 µM.

Regarding `COc1ccc2c(c1)nc1n2C(c2c(Cl)cccc2Cl)SC1` (stereo not drawn), the TGI was > 100 µM.

Turning to `CCCCCC(=O)CCCCCCCC(O)CC(=O)OCC` (stereo not drawn), the TGI is > 100 µM.

In turn, `CC(=O)O[C@H]1CC[C@@]2(C)C(=CC[C@@H]3[C@@H]2CC[C@]2(C)NC(=O)/C(=C\c4ccccc4)C[C@@H]32)C1` displayed a TGI of 33.4 µM.

With `O=C(N[C@@H](c1ccccc1)[C@@H](O)C(=O)OCc1ccc([N+](=O)[O-])cc1)c1ccccc1`, the TGI was > 100 µM.

In the case of `COC(=O)c1c(C#N)[nH]c(-c2ccsc2)c1C(=O)OC`, the TGI is > 100 µM.

Consider `CC(=O)O[C@H]1CCC2[C@@H]3CCC4Nc5oncc5C[C@]4(C)C3CC[C@@]21C` (stereo partly drawn), for which the TGI was > 10 µM.

`Cc1cn(C2CC(O)C(CO[Si](C)(C)C(C)(C)C)OC2OC(C)C)c(=O)[nH]c1=O` (stereo not drawn) yielded a TGI of 32.5 µM.

Consider `O=c1oc2ccccc2cc1-c1cn2ccccc2n1`, for which the TGI was found to be 33.4 µM.

Turning to `COC(=O)[C@H](Cc1c[nH]c2ccccc12)NC(=O)c1ccc(CNC(=O)/C(C)=C/c2ccccc2)cc1`, the TGI was > 100 µM.

Another assay relates to MALME-3M melanoma. The assay is described as follows: NCI tumour cell line growth inhibition, 48 h.
With `Cc1nn(C(=O)Cc2ccccc2)c2c1C(c1ccc(Cl)cc1)SC(N)=N2` (stereo not drawn), the TGI is > 100 µM.

Take `C#CC(C)(C)OC(=O)C(=[N+]=[N-])C(C)=O`: the TGI was > 10 µM.

As to `CCOC(=O)/C=C/[C@H](O[Si](CC)(CC)CC)C(C)(C)C`, the TGI was > 100 µM.

The compound `CC(C)N(C(=O)C1(O)c2ccccc2C=Cc2ccccc21)C(C)C` gave a TGI of 31.5 µM.

The compound `COc1ccc2c(c1)nc1n2C(c2c(Cl)cccc2Cl)SC1` (stereo not drawn) returned a TGI of 14.5 µM.

As to `CCCCCC(=O)CCCCCCCC(O)CC(=O)OCC` (stereo not drawn), the TGI is > 100 µM.

`CCCCSC1=N/C(=C\c2ccco2)C(Cl)=N1`: the TGI is > 100 µM.

Compound `CC(=O)O[C@H]1CC[C@@]2(C)C(=CC[C@@H]3[C@@H]2CC[C@]2(C)NC(=O)/C(=C\c4ccccc4)C[C@@H]32)C1` had a TGI of 36.2 µM.

With `O=C(CCc1cc(O)ccc1O)OCCc1ccccc1`, the TGI worked out at 23.5 µM.

`O=C(N[C@@H](c1ccccc1)[C@@H](O)C(=O)OCc1ccc([N+](=O)[O-])cc1)c1ccccc1`: the TGI is > 100 µM.
